# Measured values reported in PMC8891053 (Chemistry (Weinheim an der Bergstrasse, Germany), 2022).
# Read-outs that look alike come from different tables or passages of the source.
# Key:
# [1] = reported value, cited from earlier work
# [2] = system: adenosine deaminase (ADA); experiment: ADA-mediated deamination monitored by absorption and emission; format: biochemical
# [3] = Abs: monitored by absorption, first order fit
# [4] = Em: monitored by emission, first order fit
"kapp [2, 3]","t1/2 [2, 3]","kapp [2, 4]","t1/2 [2, 4]",t1/2 ([2]; calculated from absorption spectroscopy data) [s],t1/2 ([2]; calculated from changes in emission spectra) [s],half-life ([2]; adenosine deaminase (ADA) enzyme reaction) [s],SMILES,pKa ([1]; first pKa),pKa ([1]; second pKa)
,,,,,,,"Nc1nc2c(ncn2[C@@H]2O[C@H](CO)[C@@H](O)[C@H]2O)c(=O)[nH]1 [G, guanosine]",3.2–3.3,9.2–9.6
,,,,,,,O=c1ccn([C@@H]2O[C@H](CO)[C@@H](O)[C@H]2O)c(=O)[nH]1 [uridine],9.20–9.25,
220 ± 10 × 10^−4 s^−1,0.32 ± 0.02 × 10^2 s,220 ± 10 × 10^−4 s^−1,0.31 ± 0.02 × 10^2 s,32 ± 2,31 ± 2,,Nc1ncnc2c([C@@H]3O[C@H](CO)[C@@H](O)[C@H]3O)snc12 [^tzA],,
120 ± 10 × 10^−4 s^−1,0.57 ± 0.01 × 10^2 s,,,,,57,"Nc1ncnc2c1ncn2[C@@H]1O[C@H](CO)[C@@H](O)[C@H]1O [A, adenosine]",3.6–4.2,
